Test results: PubChem BioAssay AID248 (DTP/NCI, 2004)
Where “and” joins values, the source holds several entries; their conditions need not be identical. Equal values may be shown once. Toxic doses and inconclusive results are not listed. No stated cut-off is given here; in the data, active means T/C of 150% or more; inactive means T/C below 125%.

Tested on: L1210 leukemia ip in BDF1 mice, survival T/C
Assay: NCI In Vivo Anticancer Drug Screen. Data for tumor model L1210 Leukemia (intraperitoneal) in B6D2F1 (BDF1) mice
Conditions: higher = longer survival
How it was run: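 Value reflects the ratio of survival in compound-treated mice to survival in vehicle-treated controls, with both groups carrying the same transplanted tumor.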

[1] = endpoint: mean survival time, dose: 100.0 mg/kg/injection, schedule: Q01DX001 (ip), vehicle: saline
[2] = endpoint: mean survival time, dose: 200.0 mg/kg/injection, schedule: Q01DX001 (ip), vehicle: saline
[3] = endpoint: mean survival time, dose: 400.0 mg/kg/injection, schedule: Q01DX001 (ip), vehicle: saline
[4] = endpoint: mean survival time, dose: 50.0 mg/kg/injection, schedule: Q01DX001 (ip), vehicle: saline

Measured: T/C

CC1(C)CS(=O)(=O)CC1=O
inactive: endpoint: mean survival time, dose: 3.0 mg/kg/injection, schedule: Q01DX009 (ip), vehicle: other 103 % of control | endpoint: mean survival time, dose: 6.0 mg/kg/injection, schedule: Q01DX009 (ip), vehicle: other 102 % of control | endpoint: mean survival time, dose: 12.0 mg/kg/injection, schedule: Q01DX009 (ip), vehicle: other 94 % of control | endpoint: mean survival time, dose: 12.0 mg/kg/injection, schedule: Q04DX003 (ip), vehicle: saline 98 % of control | endpoint: mean survival time, dose: 25.0 mg/kg/injection, schedule: Q01DX009 (ip), vehicle: other 100 % of control | endpoint: mean survival time, dose: 25.0 mg/kg/injection, schedule: Q04DX003 (ip), vehicle: saline 101 % of control | endpoint: mean survival time, dose: 50.0 mg/kg/injection, schedule: Q01DX009 (ip), vehicle: other 96 % of control | endpoint: mean survival time, dose: 50.0 mg/kg/injection, schedule: Q04DX003 (ip), vehicle: saline 106 % of control

CC(O)CC(=O)NN (centres undefined)
inactive: [1] 98 % of control | [2] 100 % of control | [3] 93 % of control

CCCCOP(=O)(OCCCC)O/C(C)=C(\C)OP(=O)(OCCCC)OCCCC
inactive: endpoint: mean survival time, dose: 87.5 mg/kg/injection, schedule: Q01DX009 (ip), vehicle: carboxymethylcellulose (CMC) 92 % of control | endpoint: mean survival time, dose: 175.0 mg/kg/injection, schedule: Q01DX009 (ip), vehicle: carboxymethylcellulose (CMC) 98 % of control

O=C(CCCC(=O)N/N=C/c1cc(Br)cc(Br)c1)N/N=C\c1cc(Br)cc(Br)c1
inactive: [4] 96 % of control | [1] 98 % of control | [2] 96 % of control | [3] 90 % of control

CO[C@H]1/C=C/O[C@@]2(C)Oc3c(C)c(O)c4c(O)c(c(/C=N/N5C(C)CN(Cc6ccccc6)CC5C)c(O)c4c3C2=O)NC(=O)/C(C)=C\C=C\[C@H](C)[C@H](O)[C@@H](C)[C@@H](O)[C@@H](C)[C@H](OC(C)=O)[C@@H]1C (some centres undefined)
inactive: endpoint: mean survival time, dose: 12.5 mg/kg/injection, schedule: Q02DX Z (oral), vehicle: Klucel (hydroxypropylcellulose) (HPC) 100 % of control | endpoint: mean survival time, dose: 25.0 mg/kg/injection, schedule: Q02DX Z (oral), vehicle: Klucel (hydroxypropylcellulose) (HPC) 95 % of control and 98 % of control | endpoint: mean survival time, dose: 50.0 mg/kg/injection, schedule: Q01DX009 (ip), vehicle: Klucel (hydroxypropylcellulose) (HPC) 97 % of control | endpoint: mean survival time, dose: 50.0 mg/kg/injection, schedule: Q02DX Z (oral), vehicle: Klucel (hydroxypropylcellulose) (HPC) 93 % of control and 96 % of control | endpoint: mean survival time, dose: 100.0 mg/kg/injection, schedule: Q01DX009 (ip), vehicle: Klucel (hydroxypropylcellulose) (HPC) 101 % of control | endpoint: mean survival time, dose: 100.0 mg/kg/injection, schedule: Q02DX Z (oral), vehicle: Klucel (hydroxypropylcellulose) (HPC) 100 % of control and 106 % of control | endpoint: mean survival time, dose: 100.0 mg/kg/injection, schedule: Q04DX003 (ip), vehicle: Klucel (hydroxypropylcellulose) (HPC) 97 % of control | endpoint: mean survival time, dose: 200.0 mg/kg/injection, schedule: Q01DX009 (ip), vehicle: Klucel (hydroxypropylcellulose) (HPC) 100 % of control | endpoint: mean survival time, dose: 200.0 mg/kg/injection, schedule: Q02DX Z (oral), vehicle: Klucel (hydroxypropylcellulose) (HPC) 96 % of control and 98 % of control | endpoint: mean survival time, dose: 200.0 mg/kg/injection, schedule: Q04DX003 (ip), vehicle: Klucel (hydroxypropylcellulose) (HPC) 95 % of control | endpoint: mean survival time, dose: 400.0 mg/kg/injection, schedule: Q02DX Z (oral), vehicle: Klucel (hydroxypropylcellulose) (HPC) 107 % of control and 91 % of control | endpoint: mean survival time, dose: 400.0 mg/kg/injection, schedule: Q04DX003 (ip), vehicle: Klucel (hydroxypropylcellulose) (HPC) 103 % of control | endpoint: mean survival time, dose: 800.0 mg/kg/injection, schedule: Q02DX Z (oral), vehicle: Klucel (hydroxypropylcellulose) (HPC) 101 % of control and 104 % of control | endpoint: mean survival time, dose: 1600.0 mg/kg/injection, schedule: Q02DX Z (oral), vehicle: Klucel (hydroxypropylcellulose) (HPC) 95 % of control and 89 % of control | endpoint: median survival time, dose: 6.25 mg/kg/injection, schedule: Q01DX005 (ip), vehicle: other 106 % of control | endpoint: median survival time, dose: 12.5 mg/kg/injection, schedule: Q01DX005 (ip), vehicle: Klucel (hydroxypropylcellulose) (HPC) 110 % of control | endpoint: median survival time, dose: 12.5 mg/kg/injection, schedule: Q01DX005 (ip), vehicle: other 107 % of control | endpoint: median survival time, dose: 12.5 mg/kg/injection, schedule: Q01DX005 (oral), vehicle: other 117 % of control | endpoint: median survival time, dose: 25.0 mg/kg/injection, schedule: Q01DX005 (ip), vehicle: Klucel (hydroxypropylcellulose) (HPC) 101 % of control | endpoint: median survival time, dose: 25.0 mg/kg/injection, schedule: Q01DX005 (ip), vehicle: other 111 % of control | endpoint: median survival time, dose: 25.0 mg/kg/injection, schedule: Q01DX005 (oral), vehicle: Klucel (hydroxypropylcellulose) (HPC) 117 % of control | endpoint: median survival time, dose: 25.0 mg/kg/injection, schedule: Q01DX005 (oral), vehicle: other 114 % of control and 119 % of control | endpoint: median survival time, dose: 25.0 mg/kg/injection, schedule: Q02DX005 (oral), vehicle: other 104 % of control | endpoint: median survival time, dose: 50.0 mg/kg/injection, schedule: Q01DX005 (ip), vehicle: Klucel (hydroxypropylcellulose) (HPC) 97 % of control | endpoint: median survival time, dose: 50.0 mg/kg/injection, schedule: Q01DX005 (ip), vehicle: other 117 % of control | endpoint: median survival time, dose: 50.0 mg/kg/injection, schedule: Q01DX005 (oral), vehicle: Klucel (hydroxypropylcellulose) (HPC) 114 % of control | endpoint: median survival time, dose: 50.0 mg/kg/injection, schedule: Q01DX005 (oral), vehicle: other 93 % of control and 111 % of control | endpoint: median survival time, dose: 50.0 mg/kg/injection, schedule: Q02DX005 (oral), vehicle: other 104 % of control | endpoint: median survival time, dose: 100.0 mg/kg/injection, schedule: Q01DX005 (ip), vehicle: Klucel (hydroxypropylcellulose) (HPC) 106 % of control | endpoint: median survival time, dose: 100.0 mg/kg/injection, schedule: Q01DX005 (ip), vehicle: other 103 % of control | endpoint: median survival time, dose: 100.0 mg/kg/injection, schedule: Q01DX005 (oral), vehicle: Klucel (hydroxypropylcellulose) (HPC) 114 % of control | endpoint: median survival time, dose: 100.0 mg/kg/injection, schedule: Q01DX005 (oral), vehicle: other 93 % of control and 107 % of control | endpoint: median survival time, dose: 100.0 mg/kg/injection, schedule: Q02DX005 (oral), vehicle: other 104 % of control | endpoint: median survival time, dose: 200.0 mg/kg/injection, schedule: Q01DX005 (ip), vehicle: Klucel (hydroxypropylcellulose) (HPC) 92 % of control | endpoint: median survival time, dose: 200.0 mg/kg/injection, schedule: Q01DX005 (oral), vehicle: Klucel (hydroxypropylcellulose) (HPC) 94 % of control and 117 % of control | endpoint: median survival time, dose: 200.0 mg/kg/injection, schedule: Q01DX005 (oral), vehicle: other 98 % of control and 111 % of control | endpoint: median survival time, dose: 200.0 mg/kg/injection, schedule: Q02DX005 (oral), vehicle: Klucel (hydroxypropylcellulose) (HPC) 100 % of control | endpoint: median survival time, dose: 200.0 mg/kg/injection, schedule: Q02DX005 (oral), vehicle: other 119 % of control | endpoint: median survival time, dose: 400.0 mg/kg/injection, schedule: Q01DX005 (ip), vehicle: Klucel (hydroxypropylcellulose) (HPC) 102 % of control | endpoint: median survival time, dose: 400.0 mg/kg/injection, schedule: Q01DX005 (oral), vehicle: Klucel (hydroxypropylcellulose) (HPC) 104 % of control and 114 % of control | endpoint: median survival time, dose: 400.0 mg/kg/injection, schedule: Q02DX005 (oral), vehicle: Klucel (hydroxypropylcellulose) (HPC) 101 % of control | endpoint: median survival time, dose: 800.0 mg/kg/injection, schedule: Q01DX005 (ip), vehicle: Klucel (hydroxypropylcellulose) (HPC) 104 % of control | endpoint: median survival time, dose: 800.0 mg/kg/injection, schedule: Q01DX005 (oral), vehicle: Klucel (hydroxypropylcellulose) (HPC) 101 % of control | endpoint: median survival time, dose: 800.0 mg/kg/injection, schedule: Q02DX005 (oral), vehicle: Klucel (hydroxypropylcellulose) (HPC) 104 % of control | endpoint: median survival time, dose: 1600.0 mg/kg/injection, schedule: Q01DX005 (oral), vehicle: Klucel (hydroxypropylcellulose) (HPC) 104 % of control and 114 % of control | endpoint: median survival time, dose: 1600.0 mg/kg/injection, schedule: Q02DX005 (oral), vehicle: Klucel (hydroxypropylcellulose) (HPC) 119 % of control

CCCCCCCC/C=C\CCCCCCCC(=O)NCC[N+]1(C)CCCCC1
inactive: endpoint: mean survival time, dose: 75.0 mg/kg/injection, schedule: Q01DX001 (ip), vehicle: saline 94 % of control | endpoint: mean survival time, dose: 150.0 mg/kg/injection, schedule: Q01DX001 (ip), vehicle: saline 97 % of control

COc1cc(CN)cc(OC)c1OC
inactive: [4] 100 % of control | [1] 96 % of control | [2] 96 % of control | [3] 100 % of control

CC1(O)C(=O)C=Cc2ccccc21 (centres undefined)
inactive: endpoint: mean survival time, dose: 100.0 mg/kg/injection, schedule: Q01DX001 (ip), vehicle: Klucel (hydroxypropylcellulose) (HPC) 93 % of control | endpoint: mean survival time, dose: 200.0 mg/kg/injection, schedule: Q01DX001 (ip), vehicle: Klucel (hydroxypropylcellulose) (HPC) 102 % of control | endpoint: mean survival time, dose: 400.0 mg/kg/injection, schedule: Q01DX001 (ip), vehicle: Klucel (hydroxypropylcellulose) (HPC) 96 % of control

C[N+](C)(C)CCS(=O)(=O)c1ccc(Cl)cc1
inactive: endpoint: mean survival time, dose: 100.0 mg/kg/injection, schedule: Q04DX002 (ip), vehicle: saline 90 % of control

O=c1[nH]c(=S)c2c3c(sc2[nH]1)CCCC3
inactive: endpoint: mean survival time, dose: 100.0 mg/kg/injection, schedule: Q04DX003 (ip), vehicle: saline sonified 95 % of control | endpoint: mean survival time, dose: 200.0 mg/kg/injection, schedule: Q04DX003 (ip), vehicle: saline sonified 97 % of control | endpoint: mean survival time, dose: 400.0 mg/kg/injection, schedule: Q04DX003 (ip), vehicle: saline sonified 93 % of control

COC(=O)C(C)NC(=O)CNC(=O)OCc1ccccc1 (centres undefined)
inactive: endpoint: mean survival time, dose: 100.0 mg/kg/injection, schedule: Q01DX009 (ip), vehicle: saline with Tween-80 97 % of control | endpoint: mean survival time, dose: 200.0 mg/kg/injection, schedule: Q01DX009 (ip), vehicle: saline with Tween-80 102 % of control | endpoint: mean survival time, dose: 400.0 mg/kg/injection, schedule: Q01DX009 (ip), vehicle: saline with Tween-80 92 % of control
